{"source": "patent US20240165081A1", "about": "“COMPOSITIONS AND METHODS FOR TREATMENT OF INSOMNIA” (priority 2022, published 2024)", "origin": "cited, not measured here", "target": "adenosine A2A receptor (Homo sapiens, UniProt P29274)", "sequence (P29274 whole entry)": "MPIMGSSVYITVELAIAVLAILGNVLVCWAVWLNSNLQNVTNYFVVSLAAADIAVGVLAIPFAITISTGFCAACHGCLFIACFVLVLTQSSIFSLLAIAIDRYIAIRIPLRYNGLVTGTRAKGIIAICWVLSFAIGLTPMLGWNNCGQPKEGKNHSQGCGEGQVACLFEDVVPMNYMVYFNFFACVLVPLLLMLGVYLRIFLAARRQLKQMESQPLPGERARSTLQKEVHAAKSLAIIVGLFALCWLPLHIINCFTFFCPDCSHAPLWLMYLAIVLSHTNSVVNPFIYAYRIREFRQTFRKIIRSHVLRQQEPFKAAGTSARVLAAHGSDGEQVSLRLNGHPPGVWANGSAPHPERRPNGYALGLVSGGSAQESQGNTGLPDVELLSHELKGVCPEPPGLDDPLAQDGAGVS", "data": [{"smiles": "C=C(C)C1CC=C(C)CC1", "note": "[D-limonene, 4-isopropenyl-1-methylcyclohexene]", "values": [{"measurement": "binding to the adenosine A2A receptor", "value": "found to bind to the adenosine A2A receptor"}]}]}
